Legend:
[1] = Sonoactivation of IRDye 700DX solution; reactive oxygen species detected with dihydrorhodamine 123 (DHRd123) indicator
Source text: The results illustrate that ultrasonic waves enhance the emission of a reactive oxygen species indicator, which indicates the occurrence of one of the sonodynamic effects generated by applying ultrasonic energy to IRDye® 700DX under the experimental conditions. In this example, the concentration of IRDye® 700DX was 1 μm.
The experiment included dihydroxy rhodamine 123 to detect the presence of reactive oxygen species. Reactive oxygen species were detected.
The results illustrate a continuous treatment of a 1 MHz ultrasonic wave. […] The experiment included dihydroxy rhodamine 123 to detect the presence of reactive oxygen species. Reactive oxygen species were detected. […]

[2] = Sonoactivation of IRDye 700DX solution; singlet oxygen detected with Sensor Green indicator; conditions: ultrasonic wave at 1MHz and 2.0W/cm^2
Source text: As shown therein, there is generation of singlet oxygen during the sonodynamic process. By applying the ultrasonic wave at 1MHz and 2.0W/cm^2 to the agent IRDye® 700DX, the enhancement of the emission of the singlet oxygen indicator, Sensor Green (SG), indicates the occurrence of a sonodynamic effects. Singlet oxygen was detected.
Both sonosensitization, also known as sonodynamic activation or sonoactivation, and photosensitization, also known as photodynamic activation or photoactivation, trigger reactive oxidation species (ROS) or single oxygen (^1O2) that results in cell death via either apoptosis or necrosis, and thus sonodynamic therapy (SDT) or photodynamic therapy (PDT), respectively.

[3] = Emission profile of IRDye 700DX (700 nm range) after ultrasound: stability of the dye; format: physicochemical; conditions: 1MHz ultrasonic wave at 3 W/cm^2, 15 minutes
A431 cells = experiment: VB-48 Assay: vitality, viability and necrosis after probe labeling and irradiation; format: cell-based; conditions: irradiated 32 J/cm^2; RGD-700DX 0.5 μM, EGF-700DX 0.5 μM, 700DX NHSe 5 μM, Pan-700DX ~0.1 μM; 24 hours post treatment
Protocol: Briefly, A431 cells were labeled with respective probes for specific treatments (listed below); cells were rinsed and evaluated for labeling. The test include the following treatments: […], treatments 3-4 of EGF-IRDye® 700DX at 0.5 μM and radiation, treatments 5-6 of IRDye® 700DX NHSe at 5 μM and radiation, treatments 7-8 of panitumumab-IRDye® 700DX at about 0.1 μM and radiation, treatment 9 of a negative control with no probe and no irradiation, and treatment 10 of RGD-IRDye® 700DX and no irradiation. The probes were incubated for about 10 minutes and with a longer period of about 20 minutes for the RGD probe.

[4] = continuous treatment of a 1 MHz ultrasonic wave

C[Si](C)(CCC[N+](CCCS(=O)(=O)[O-])(CCCS(=O)(=O)[O-])CCCS(=O)(=O)[O-])O[Si]1(O[Si](C)(C)CCC[N+](CCCS(=O)(=O)[O-])(CCCS(=O)(=O)[O-])CCCS(=O)(=O)[O-])n2c3c4ccccc4c2N=C2N=C(N=c4c5ccccc5c(n41)=NC1=NC(=N3)c3ccccc31)c1cccc(OCCCOC(=O)NCCCCCC(=O)ON3C(=O)CCC3=O)c12.[Na+].[Na+].[Na+].[Na+] (centres unmarked) [IRDye® 700DX]
Primary Sonodynamic Effect Detected ([1]; 700DX 1 uM with DHRd123, no sonodynamic activation (placebo), 7 min): None
Primary Sonodynamic Effect Detected ([1]; 700DX 1 uM with DHRd123, no sonodynamic activation (placebo), 15 min): Minimal
Primary Sonodynamic Effect Detected ([1]; 700DX with DHRd123, 1 MHz, 2.2 W/cm^2, 7 + 7 min, duty cycle 20%, 370 J/cm^2): ROS+
Primary Sonodynamic Effect Detected ([1]; 700DX with DHRd123, 1 MHz, 2.2 W/cm^2, 7 min, duty cycle 20%, 185 J/cm^2): ROS
Primary Sonodynamic Effect Detected ([1]; 700DX with DHRd123, 1 MHz, 2.2 W/cm^2, 15 min, duty cycle 20%, 396 J/cm^2): ROS++
Primary Sonodynamic Effect Detected ([1]; 700DX with DHRd123, 3.3 MHz, 3 W/cm^2, 7 min, duty cycle 20%, 252 J/cm^2): ROS
Primary Sonodynamic Effect Detected ([1]; 700DX with DHRd123, 3.3 MHz, 3 W/cm^2, 15 min, duty cycle 20%, 540 J/cm^2): ROS++
emission of the reactive oxygen species indicator (FIG. 3) ([1]; IRDye 700DX 1 μm, 1MHz ultrasonic wave at 3 W/cm^2, 15 minutes): large increase in the emission of the indicator
emission peak of the reactive oxygen species indicator (FIG. 3) ([1]; IRDye 700DX 1 μm, duration 7 minutes): not as enhanced as with 15 minutes duration
presence of reactive oxygen species (dihydroxy rhodamine 123), FIG. 3 ([1]; IRDye 700DX 1 μm, ultrasonic wave 7 or 15 minutes): detected
effect of increasing the pulse duration on reactive oxygen species (FIG. 4) [1, 4]: increases the generation of reactive oxygen species
presence of reactive oxygen species (dihydroxy rhodamine 123), FIG. 4 [1, 4]: detected
generation of singlet oxygen (Sensor Green), FIG. 5 [2]: detected
chemical structure of the dye after sonodynamic activation (emission profile at 700 nm range) [3]: did not decompose

COC(=O)c1ccccc1C1c2ccc(N)cc2Oc2cc(N)ccc21 [Sensitizer DHRd123 Solution, dihydrorhodamine 123, reference compound]
Primary Sonodynamic Effect Detected ([1]; DHRd123 solution 2.5 uM alone, no IRDye 700DX, no sonodynamic activation): None
Primary Sonodynamic Effect Detected ([1]; DHRd123 solution alone, no IRDye 700DX, 3.3 MHz, 3 W/cm^2, 15 min, duty cycle 20%, 540 J/cm^2): ROS

EGF-700DX
Cells/mL (A431 cells): 3.4 × 10^5 Cells/mL
Low % Vitality (A431 cells): 19%

Pan-700DX: panitumumab antibody labeled with IRDye 700DX
% Healthy (A431 cells): 15.0%
% Necrotic (A431 cells): 70%
Cells/mL (A431 cells): 1.2 × 10^5 Cells/mL
Est % Viability (A431 cells): 30-40%
Low % Vitality (A431 cells): 15%

From patent US20190070296A1, “SONODYNAMIC THERAPY” (LI-COR, INC., priority 2017, published 2019)
